Measured values from PubChem BioAssay (NCI).
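Method: 48-hour compound exposure of cells in 96-well plates, five concentrations, linear interpolation of endpoints. GI50 = concentration required for 50% inhibition of growth. TGI is the concentration that stops growth completely.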

Columns and labels:
Experiment in all cases: inhibition of tumour cell growth, NCI panel, 48 h
[1] = test system: OVCAR-3 ovarian
[2] = test system: TK-10 renal
[3] = test system: HOP-62 NSCLC
[4] = test system: CCRF-CEM leukemia
[5] = test system: HS 578T breast
[6] = test system: BT-549 breast
[7] = test system: SK-MEL-2 melanoma
[8] = test system: SNB-19 CNS
[9] = test system: U251 CNS
[10] = test system: NCI/ADR-RES ovarian
[11] = test system: M14 melanoma
[12] = test system: SF-268 CNS
[13] = test system: A549 NSCLC
[14] = test system: IGROV1 ovarian
[15] = test system: K-562 leukemia
[16] = test system: UO-31 renal
[17] = test system: SF-539 CNS
[18] = test system: PC-3 prostate
[19] = test system: RPMI-8226 leukemia
[20] = test system: KM12 colon
[21] = test system: SF-295 CNS
[22] = test system: NCI-H23 lung
[23] = test system: NCI-H460 lung
[24] = test system: T-47D breast
[25] = test system: SR leukemia
[26] = test system: A498 renal
[27] = test system: SK-OV-3 ovarian
[28] = test system: DU-145 prostate
[29] = test system: OVCAR-8 ovarian
[30] = test system: NCI-H226 lung
[31] = test system: UACC-257 melanoma
[32] = test system: SW-620 colon
[33] = test system: SK-MEL-28 melanoma
[34] = test system: 786-0 renal
[35] = test system: MALME-3M melanoma
[36] = test system: HL-60(TB) leukemia
[37] = test system: OVCAR-4 ovarian
[38] = test system: MDA-MB-435
[39] = test system: EKVX NSCLC
[40] = test system: CAKI-1 renal
[41] = test system: UACC-62 melanoma
[42] = test system: COLO 205 colon
[43] = test system: NCI-H522 lung
[44] = test system: OVCAR-5 ovarian
[45] = test system: SN12C renal
[46] = test system: LOX IMVI melanoma
[47] = test system: HCT-116 colon
[48] = test system: SK-MEL-5 melanoma
[49] = test system: MOLT-4 leukemia
[50] = test system: MCF7 breast
[51] = test system: MDA-MB-231 breast
[52] = test system: RXF 393 renal

**Q.** What does the source list for `N#CC1=C(N)NC(=S)NC12Nc1ccccc1N2`?
**A.** GI50 [1]: 22 µM; TGI [1]: > 100 µM; GI50 [2]: 46.4 µM; TGI [2]: > 100 µM; GI50 [3]: 55.5 µM; TGI [3]: > 100 µM; GI50 [4]: 18.2 µM; TGI [4]: > 100 µM; GI50 [5]: 68.9 µM; TGI [5]: > 100 µM; GI50 [6]: 33.1 µM; TGI [6]: 91.2 µM; GI50 [7]: 18.6 µM; TGI [7]: > 100 µM; GI50 [8]: 90.1 µM; TGI [8]: > 100 µM; GI50 [9]: > 100 µM; TGI [9]: > 100 µM; GI50 [10]: 46.8 µM; TGI [10]: > 100 µM; GI50 [11]: 40 µM; TGI [11]: > 100 µM; GI50 [12]: 18.6 µM; TGI [12]: > 100 µM; GI50 [13]: 37.6 µM; TGI [13]: > 100 µM; GI50 [14]: 26.9 µM; TGI [14]: > 100 µM; GI50 [15]: 28.1 µM; TGI [15]: > 100 µM; GI50 [16]: 55.2 µM; TGI [16]: > 100 µM; GI50 [17]: 42.4 µM; TGI [17]: > 100 µM; GI50 [18]: 28.5 µM; TGI [18]: > 100 µM; GI50 [19]: 21.7 µM; TGI [19]: > 100 µM; GI50 [20]: 23.6 µM; TGI [20]: > 100 µM; GI50 [21]: 33.1 µM; TGI [21]: > 100 µM; GI50 [22]: 36.7 µM; TGI [22]: > 100 µM; GI50 [23]: 28.7 µM; TGI [23]: > 100 µM; GI50 [24]: 69.7 µM; TGI [24]: > 100 µM; GI50 [25]: 6.18 µM; TGI [25]: > 100 µM; GI50 [26]: 20 µM; TGI [26]: 43.5 µM; GI50 [27]: 61 µM; TGI [27]: > 100 µM; GI50 [28]: 65.3 µM; TGI [28]: > 100 µM; GI50 [29]: 38.6 µM; TGI [29]: > 100 µM; GI50 [30]: 20.6 µM; TGI [30]: 88.2 µM; GI50 [31]: > 100 µM; TGI [31]: > 100 µM; GI50 [32]: 59.5 µM; TGI [32]: > 100 µM; GI50 [33]: 47.4 µM; TGI [33]: > 100 µM; GI50 [34]: 51.7 µM; TGI [34]: > 100 µM; GI50 [35]: 13.5 µM; TGI [35]: 69.2 µM; GI50 [36]: 20.8 µM; TGI [36]: > 100 µM; GI50 [37]: > 100 µM; TGI [37]: > 100 µM; GI50 [38]: 19.6 µM; TGI [38]: > 100 µM; GI50 [39]: 65.6 µM; TGI [39]: > 100 µM; GI50 [40]: 19.8 µM; TGI [40]: > 100 µM; GI50 [41]: 12.5 µM; TGI [41]: 57.5 µM; GI50 [42]: 32.6 µM; TGI [42]: > 100 µM; GI50 [43]: 20.8 µM; TGI [43]: 80 µM; GI50 [44]: 46.8 µM; TGI [44]: > 100 µM; GI50 [45]: 55.5 µM; TGI [45]: > 100 µM; GI50 [46]: 80.1 µM; TGI [46]: > 100 µM; GI50 [47]: 50 µM; TGI [47]: > 100 µM; GI50 [48]: 18.1 µM; TGI [48]: 61 µM; GI50 [49]: 22.2 µM; TGI [49]: > 100 µM; GI50 [50]: 22.7 µM; TGI [50]: > 100 µM; GI50 [51]: > 100 µM; TGI [51]: > 100 µM; GI50 [52]: > 100 µM; TGI [52]: > 100 µM
